Results: PubChem BioAssay AID2060493 (Molecular Pharmacology Branch, DTP, NCI, 2025)

Test system: 616215-338-R-J1-PDC tumor spheroids, viability
Test: Anticancer human tumor 616215-338-R-J1-PDC patient-derived colon adenocarcinoma cell line growth inhibition [GQUAD]
Conditions: spheroids with HUVEC and MSC; for IC50: curve of first compound; for viability, T/C: stronger effect = lower value; active = viability on the fitted dose curve at most 10% of control; inactive = the rest
Outline: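 Multi-cell-type spheroids of tumor cells with HUVEC and mesenchymal stem cells, treated with drug combinations. Concentrations descend in half-log steps from near clinical Cmax, or from 10 microM where Cmax is unknown; viability read-out.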

[1] = second compound 0.0316 µM, first compound 0.0316 µM
[2] = second compound 0.0316 µM, first compound 0.1 µM
[3] = second compound 0.0316 µM, first compound 0.316 µM
[4] = second compound 0.0316 µM, first compound 1 µM
[5] = second compound 0.0316 µM, first compound 3.16 µM
[6] = second compound 0.0316 µM, first compound 10 µM
[7] = second compound 0.1 µM, first compound 0.0316 µM
[8] = second compound 0.1 µM, first compound 0.1 µM
[9] = second compound 0.1 µM, first compound 0.316 µM
[10] = second compound 0.1 µM, first compound 1 µM
[11] = second compound 0.1 µM, first compound 3.16 µM
[12] = second compound 0.1 µM, first compound 10 µM
[13] = second compound 0.316 µM, first compound 0.0316 µM
[14] = second compound 0.316 µM, first compound 0.1 µM
[15] = second compound 0.316 µM, first compound 0.316 µM
[16] = second compound 0.316 µM, first compound 1 µM
[17] = second compound 0.316 µM, first compound 3.16 µM
[18] = second compound 0.316 µM, first compound 10 µM
[19] = second compound 1 µM, first compound 0.0316 µM
[20] = second compound 1 µM, first compound 0.1 µM
[21] = second compound 1 µM, first compound 0.316 µM
[22] = second compound 1 µM, first compound 1 µM
[23] = second compound 1 µM, first compound 3.16 µM
[24] = second compound 1 µM, first compound 10 µM
[25] = second compound 3.16 µM, first compound 0.0316 µM
[26] = second compound 3.16 µM, first compound 0.1 µM
[27] = second compound 3.16 µM, first compound 0.316 µM
[28] = second compound 3.16 µM, first compound 1 µM
[29] = second compound 3.16 µM, first compound 3.16 µM
[30] = second compound 3.16 µM, first compound 10 µM
[31] = second compound 10 µM, first compound 0.0316 µM
[32] = second compound 10 µM, first compound 0.1 µM
[33] = second compound 10 µM, first compound 0.316 µM
[34] = second compound 10 µM, first compound 1 µM
[35] = second compound 10 µM, first compound 3.16 µM
[36] = second compound 10 µM, first compound 10 µM
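Note: spheroids exposed to agents for 7 days before readout.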
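Throughout, for viability, T/C: percent viability relative to DMSO vehicle control wells taken as 100%.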

COc1ccc([C@@H](O)c2cc(-c3ncnc4cc(N5CCOCC5)ccc34)c(F)cc2Cl)nn1 + Cc1cnc(CNC(=O)c2c(=O)c3ccc(N4CCCN(C)CC4)nc3n3c2sc2ccccc23)cn1
798 nM: IC50 (second compound 0.0316 µM)
active: viability, T/C [30] 3.64% | viability, T/C [36] 3.43%
< 31.6 nM: IC50 (second compound 0.316 µM) | IC50 (second compound 1 µM) | IC50 (second compound 3.16 µM) | IC50 (second compound 10 µM)
inactive: viability, T/C [1] 102% | viability, T/C [2] 92.4% | viability, T/C [3] 93.9% | viability, T/C [4] 39.3% | viability, T/C [5] 30.1% | viability, T/C [6] 25.3% | viability, T/C [7] 59.2% | viability, T/C [8] 74.2% | viability, T/C [9] 61.2% | viability, T/C [10] 42.2% | viability, T/C [11] 39.9% | viability, T/C [12] 24.6% | viability, T/C [13] 43.6% | viability, T/C [14] 46.8% | viability, T/C [15] 43% | viability, T/C [16] 27.9% | viability, T/C [17] 26.4% | viability, T/C [18] 14.6% | viability, T/C [19] 25.3% | viability, T/C [20] 28.6% | viability, T/C [21] 30.5% | viability, T/C [22] 21.8% | viability, T/C [23] 22.8% | viability, T/C [24] 7.7% | viability, T/C [25] 23.1% | viability, T/C [26] 26.9% | viability, T/C [27] 30.1% | viability, T/C [28] 25% | viability, T/C [29] 15.9% | viability, T/C [31] 33.8% | viability, T/C [32] 25.8% | viability, T/C [33] 32.3% | viability, T/C [34] 20% | viability, T/C [35] 15.4%
770 nM: IC50 (second compound 0.1 µM)

O=C(c1cc(Cc2n[nH]c(=O)c3ccccc23)ccc1F)N1CCN(C(=O)C2CC2)CC1 + Cc1cnc(CNC(=O)c2c(=O)c3ccc(N4CCCN(C)CC4)nc3n3c2sc2ccccc23)cn1
< 31.6 nM: IC50 (second compound 0.316 µM) | IC50 (second compound 1 µM) | IC50 (second compound 3.16 µM) | IC50 (second compound 10 µM)
inactive: viability, T/C [1] 97.3% | viability, T/C [2] 103% | viability, T/C [3] 107% | viability, T/C [4] 87.9% | viability, T/C [5] 84.3% | viability, T/C [6] 68.7% | viability, T/C [7] 68.5% | viability, T/C [8] 69.3% | viability, T/C [9] 74.4% | viability, T/C [10] 64.3% | viability, T/C [11] 53.9% | viability, T/C [12] 51.5% | viability, T/C [13] 43.6% | viability, T/C [14] 39.4% | viability, T/C [15] 46.4% | viability, T/C [16] 52.2% | viability, T/C [17] 36.1% | viability, T/C [18] 35.1% | viability, T/C [19] 42.8% | viability, T/C [20] 28.7% | viability, T/C [21] 30.4% | viability, T/C [22] 54.8% | viability, T/C [23] 38.5% | viability, T/C [24] 26.7% | viability, T/C [25] 28.1% | viability, T/C [26] 26.6% | viability, T/C [27] 23.2% | viability, T/C [28] 28.7% | viability, T/C [29] 41.4% | viability, T/C [30] 30.3% | viability, T/C [31] 36.6% | viability, T/C [32] 28.7% | viability, T/C [33] 25.2% | viability, T/C [34] 22.7% | viability, T/C [35] 44.1% | viability, T/C [36] 24.3%
> 10000 nM: IC50 (second compound 0.0316 µM) | IC50 (second compound 0.1 µM)
